1 compound from PMC13053910, “Covalent Protein Inhibitors via Tyrosine and Tryptophan Conjugation with Cyclic Imine Mannich Electrophiles” (Angewandte Chemie (International Ed. in English), 2026) can be followed below.

Substitutions are numbered along the chain they refer to. Entries after “also recorded” stand apart in the source; their conditions may differ. Where two headings read alike, the source gives them in different places.

The nature of data set [1]: Stability in bovine serum-containing cell media (LC/MS). The class given is in vitro ADME. The following applies: 20 µM, DMEM with 15% FBS, 24 h, 37 °C. On the procedure:
To be suitable for chemical probe and therapeutic applications, the warhead should show good stability. In general, we found the iminolactam warheads to be quite stable. Compound 1 was stable as a solid at room temperature for over 3 months. […] After 24‐h in aqueous buffer, compounds were treated with sodium cyanoborohydride. […] The synthetic strategy of in situ formation of imines by periodate treatment was pursued to avoid concerns of warhead reactivity with the ligand itself to either the peptide backbone or the phenoxyphenyl aryl group. This appears to have been unnecessary, at least for the iminolactam warhead. […] The more reactive ester imine may be forming semi‐stable cyclized products with the amide backbone, which have been observed previously with peptide aldehydes.^[ [51], [52] ^] Due to these issues, we selected compound P1b for further characterization.
Figure S17. Stability of cyclic imine inhibitors to serum-containing cell culture media. […] The protein fraction was then precipitated with addition of 2 volumes of 1:1 EtOH:acetonitrile and overnight incubation at -20 °C. Samples were centrifuged 16,000 g for 30 minutes. Supernatants were filtered through a 0.5 micro spin filter and evaporated with a speed vacuum. The compounds were resuspended in PBS and analzyed by LC/MS. […] Overlaid spectra of UV at 215 nm are shown and are representative of 3 replicates.

Data set [2] deals with T1, CBX8 ChD (Homo sapiens, UniProt Q9HC52).
T1 construct: CBX chromodomain constructs (addgene plasmid #25158 (CBX2), and #62514 (CBX8, provided by Cheryl Arrowsmith)); 6His; host or cells: E. coli (BL21 CodonPlus RIL or Rosetta 2)
T1 sequence (Q9HC52 11-69 limits assumed): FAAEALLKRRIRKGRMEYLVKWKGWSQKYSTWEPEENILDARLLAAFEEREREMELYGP
The data set is described as follows: Covalent conjugation to CBX8 ChD, UV integration on LC/MS. The class given is binding. On the procedure: Percent covalent conjugation was determined by UV integration on LC/MS after overnight incubation at 10 µM compound and protein at 37 °C.
2.3 In Vitro CBX ChD Labeling with Covalent Inhibitors. 10 µM purified CBX ChD was incubated with imine covalent inhibitors (10 µM) in PBS buffer (pH 7) at 37 °C or R.T. Protein labeling samples were precipitated using MeOH and CHCl3 at the volume ratio of MeOH:CHCl3:sample=3:0.5:1, washed twice using cold MeOH, and air dried. Dried protein pellets were resuspended in aqueous buffer (0.1% formic acid, 300 mM ammonium acetate).
Precipitated samples were analyzed on a C4 reversed-phase column (e.g., 2.1 × 150 mm, 3–5 µm particle size) using a linear gradient of solvent A (0.1% formic acid in water) and solvent B (0.1% formic acid in acetonitrile). Elution was monitored by UV absorbance at 215 nm, and mass spectra were acquired in positive ion mode to confirm the identities of unlabeled and labeled protein species.
Labeling yield (%)=AlabeledAlabeled+Aunlabeled×100
For P2, 10 µM purified CBX ChD was incubated with P2 (10 µM) in PBS buffer (pH 7) at 37 °C or R.T. for 1.5 hours, as well as 12 hours overnight. […] Dried protein pellets were resuspended in aqueous buffer (0.1% formic acid, 300 mM ammonium acetate), and protein labeling were characterized and quantitated by ESI LC-MS.

In data set [3] the target is T1, CBX8 ChD. The data set can be described thus: Time-dependent fluorescence polarization displacement assay, CBX8 ChD. The class given is binding. Particulars: Figure 5d, CBX8 ChD 2 µM, PBS pH 7. In general terms: In fluorescence polarisation assays a small probe gives low polarisation when free and higher when bound to something large.
Data set [4] addresses T2, CBX8 ChD Y39F (Homo sapiens, UniProt Q9HC52, Y39F).
T2 construct: 6His (N); TEV site (ENLYFQG), read by me from the printed insert DNA (N); host or cells: E. coli (BL21 CodonPlus RIL or Rosetta 2), pET-28a(+)
T2 sequence (Q9HC52 11-69 Y39F limits assumed): T1 sequence (Q9HC52 11-69 limits assumed) with Y29F
The data set is described as follows: Time-dependent fluorescence polarization displacement assay, CBX8 Y39F. The data set is classed as binding. The following applies: for IC50: Figure 5d, CBX8 Y39F 2 µM, probe 100 nM. On the procedure:
(§1) Observed masses are shown (expected average mass for CBX8 ChD = 8792 Da). The observed mass difference (913 Da) agrees with the expected mass change of 913 Da. b) Labeled protein was detected by gel shift on 16.5% Tris‐Tricine SDS‐PAGE. […] Gel analysis was conducted on a 2.5% agarose gel in 10 mM sodium borate buffer. […] Assays were conducted using SW2_113 as an FP probe (Figure S20) at 100 nM. All proteins were used at 2 µM in PBS (pH 7), 0.02% Tween 20. Error bars represent SD. […] (μM); no other compound label is printed beside the IC50 lines
(§2) 2.2 Fluorescence Displacement Assay to Evaluate Time-dependent potency of Imine Covalent Inhibitors to CBX ChD. Fluorescence polarization (FP) was measured by titration of CBX ChDs (CBX8 ChD/CBX8 ChD Y39F/CBX2 ChD) to a fluoresceine-labelled probe as previously reported ^1. Fluorescence displacement assays were performed in black 384-well plates with optical bottoms. Buffer used in FP assays consists of 100 mM Na2HPO4, 150 mM NaCl, 0.02% Tween 20. […] Two-fold dilutions of covalent inhibitors were used, starting with 100 µM as highest peptide concentration to 0.049 µM as the lowest. Four replicates were tested at each concentration. Fluorescence anisotropy was read at different time points. Raw data were analyzed using GraphPad Prism 7 following a “one site-Fit logIC50” competition model with any outliers (95 % confidence interval) being excluded.
(§3) Time-dependent fluorescence displacement assay Fluorescence polarization (FP) was measured by titration of CBX ChDs (CBX8 ChD/CBX8 ChD Y39F/CBX2 ChD) to a fluorescein-labelled probe as previously reported.^8 Fluorescence displacement assays were performed in black 384-well plates with optical bottoms. Buffer used in FP assays consists of 100 mM Na2HPO4, 150 mM NaCl, 0.02% Tween 20. […] Fluorescence anisotropy was read at different time points. […] Raw data were analyzed using GraphPad Prism 7 following a “one site-Fit logIC50” competition model with any outliers (95 % confidence interval) being excluded.

Data set [5] deals with T3, CBX2 ChD (Homo sapiens, UniProt Q14781).
T3 construct: CBX chromodomain constructs (addgene plasmid #25158 (CBX2), and #62514 (CBX8, provided by Cheryl Arrowsmith)); 6His; host or cells: E. coli (BL21 CodonPlus RIL or Rosetta 2)
T3 sequence (Q14781 12-70 limits assumed): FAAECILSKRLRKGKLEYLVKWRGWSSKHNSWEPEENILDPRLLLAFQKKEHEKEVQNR
The data set can be described thus: Time-dependent fluorescence polarization displacement assay, CBX2 ChD. The class given is binding. Particulars: for IC50: Figure 5d, CBX2 ChD 2 µM, probe 100 nM. Here is the method:
as §1, §2, §3

What is called IC50 is the midpoint of a concentration-inhibition curve. Turning to `CC[C@H](C)[C@H](NC(=O)[C@@H](NC(=O)c1ccc(Oc2ccccc2)cc1)C1CCCC1)C(=O)N[C@@H](CCCCN(CC)CCCCCCN1CCN=CC1=O)C(=O)N[C@@H](CO)C(N)=O` [P1b], the “stability in bovine serum‐containing cell media” value in data set [1] is listed as “no degradation or loss to the protein fraction; also recorded: minimal loss of compounds to the precipitated protein fraction or degradation”. Also, in data set [2] (10 µM compound and protein, 37 °C, overnight), the “% conj. to CBX8 at 37 °C Overnight 10 μM each” value is reported as ~90%. In addition, the “effect of GSH on CBX8 ChD labeling yield” value in data set [2] (presence of 10 mM GSH) was “no effect on yield”. The IC50 came out at 9.9 µM in data set [3] (SW2_113 probe 100 nM, read-out: IC50 at time 0); 2 µM in data set [3] (IC50 at 20 h, probe 100 nM); 12 µM in data set [4] (read-out: IC50 at time 0); 11 µM in data set [4] (IC50 at 20 h); 17 µM in data set [5] (read-out: IC50 at time 0); 15 µM in data set [5] (IC50 at 20 h). Also, in data set [4] (CBX8 Y39F mutant), the “change in IC50 upon extended incubation” value was “no change in IC50”. In addition, the “change in potency in time‐dependent FP assay” value in data set [5] (binding to CBX2) is given as “no change in potency”.
